In assay [1] the target is T1, rat adrenergic α1B receptor (Rattus norvegicus, UniProt P15823).
T1 construct: obtained from Wistar Rat liver; from tissue; host or cells: Wistar rat liver
T1 sequence (P15823 1-515): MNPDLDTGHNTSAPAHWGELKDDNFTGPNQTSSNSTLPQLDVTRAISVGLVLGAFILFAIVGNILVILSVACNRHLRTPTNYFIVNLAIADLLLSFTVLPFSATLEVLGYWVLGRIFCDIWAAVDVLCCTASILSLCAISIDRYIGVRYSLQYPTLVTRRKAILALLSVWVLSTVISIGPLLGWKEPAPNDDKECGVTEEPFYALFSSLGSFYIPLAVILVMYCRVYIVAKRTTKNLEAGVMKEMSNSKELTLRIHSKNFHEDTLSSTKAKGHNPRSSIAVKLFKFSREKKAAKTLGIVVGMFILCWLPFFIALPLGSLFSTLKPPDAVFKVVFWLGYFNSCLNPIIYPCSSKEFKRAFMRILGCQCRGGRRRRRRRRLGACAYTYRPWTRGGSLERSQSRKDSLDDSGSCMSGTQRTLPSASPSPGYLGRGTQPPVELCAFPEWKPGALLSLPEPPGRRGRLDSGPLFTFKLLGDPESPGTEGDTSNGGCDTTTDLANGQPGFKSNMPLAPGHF
Description: Adrenergic α1B radioligand binding ([3H]Prozosin). To be noted: compound at 1 μM; Wistar Rat liver; read-out: Adrenergic (1 μM) α1B, percent inhibition of specific binding. The method, then:
To evaluate in radioligand binding assays the activity of compounds of the invention, rat adrenergic α1B receptor obtained from Wistar Rat liver (Garcia-S'ainz, J. A. et al., Biochem. Biophys. Res. Commun. 186:760, 1992; Michel A. D. et al. Br. J. Pharmacol. 98:883, 1989) in a modified Tris-HCl buffer (50 mM Tris-HCl buffer, pH 7.4, 0.5 mM EDTA) was used. Compounds of the invention were incubated with 0.25 nM [^3H]Prozosin for 60 minutes at 25° C. Non-specific binding was estimated in the presence of 10 μM phentolamine. Receptor proteins were filtered and washed, the filters were then counted to determine [^3H]Prozosin specifically bound. Compounds were screened at 1 μM or lower, using 1% DMSO as vehicle. Compounds of the invention were tested in this biochemical assay and percent inhibition of specific binding was determined. Biochemical assay results are presented as the percent inhibition of specific binding in Table 6.

The target of assay [2] is T2, human recombinant serotonin (5-Hydroxytryptamine) 5-HT7 receptor (Homo sapiens, UniProt P34969).
T2 construct: expressed in transfected cells; host or cells: CHO cells
T2 sequence (P34969 whole entry): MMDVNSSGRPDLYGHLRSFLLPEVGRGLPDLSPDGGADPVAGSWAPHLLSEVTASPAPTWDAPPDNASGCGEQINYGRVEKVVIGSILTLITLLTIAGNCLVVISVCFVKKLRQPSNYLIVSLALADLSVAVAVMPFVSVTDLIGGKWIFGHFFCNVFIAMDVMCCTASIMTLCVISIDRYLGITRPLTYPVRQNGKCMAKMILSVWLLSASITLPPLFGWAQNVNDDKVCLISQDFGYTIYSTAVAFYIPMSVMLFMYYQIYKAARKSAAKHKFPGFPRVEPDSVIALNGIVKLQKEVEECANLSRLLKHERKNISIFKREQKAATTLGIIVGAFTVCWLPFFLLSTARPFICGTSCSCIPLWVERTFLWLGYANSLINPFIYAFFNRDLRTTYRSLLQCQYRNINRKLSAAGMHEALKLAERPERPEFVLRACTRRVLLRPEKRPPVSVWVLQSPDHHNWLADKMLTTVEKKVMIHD
Put plainly: Serotonin 5-HT7 radioligand binding ([3H]LSD). The conditions noted are these: compound at 1 μM; CHO cells; read-out: Serotonin (1 μM) 5-HT7, percent inhibition of specific binding. The method, then:
To evaluate in radioligand binding assays the activity of compounds of the invention, human recombinant serotonin (5-Hydroxytryptamine) 5-HT7 receptor expressed in Chinese hamster ovary (CHO) cells (Roth, B. L. et al., J. Pharmacol. Exp. Ther. 268:1403, 1994; Shen, Y. et al., J. Biol. Chem. 268:18200, 1993) in a modified Tris-HCl buffer (50 mM Tris-HCl, pH 7.4, 10 mM MgCl2, 0.5 mM EDTA) was used. Compounds of invention were incubated with 5.5 nM [^3H] Lysergic acid diethylamide (LSD) for 2 hours at 25° C. Non-specific binding was estimated in the presence of 10 μM Serotonin (5-HT). Receptor proteins were filtered and washed, the filters were then counted to determine [^3H]LSD specifically bound. Compounds were screened at 1 μM or lower, using 1% DMSO as vehicle. Biochemical assay results are presented as the percent inhibition of specific binding in Table 7.

Assay [3] deals with T3, human recombinant serotonin (5-Hydroxytryptamine) 5-HT5A receptor (Homo sapiens, UniProt P47898).
T3 construct: expressed in transfected cells; host or cells: CHO-K1 cells
T3 sequence (P47898 whole entry): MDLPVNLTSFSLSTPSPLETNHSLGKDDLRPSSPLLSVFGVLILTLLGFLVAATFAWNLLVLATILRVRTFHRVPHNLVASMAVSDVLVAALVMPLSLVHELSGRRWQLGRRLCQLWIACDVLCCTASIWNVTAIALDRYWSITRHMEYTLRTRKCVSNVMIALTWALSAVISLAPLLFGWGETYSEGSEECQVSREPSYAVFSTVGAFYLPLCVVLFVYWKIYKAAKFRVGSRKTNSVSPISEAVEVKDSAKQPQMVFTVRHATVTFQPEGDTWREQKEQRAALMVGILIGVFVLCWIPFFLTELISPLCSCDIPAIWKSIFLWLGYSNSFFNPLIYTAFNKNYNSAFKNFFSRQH
Put plainly: Serotonin 5-HT5A radioligand binding ([3H]LSD). To be noted: compound at 1 μM; CHO-K1 cells; read-out: Serotonin (1 μM) 5-HT5A, percent inhibition of specific binding. Here is the method:
To evaluate in radioligand binding assays the activity of compounds of the invention, human recombinant serotonin (5-Hydroxytryptamine) 5-HT5A receptor expressed in Chinese hamster ovary (CHO-K1) cells (Rees, S. et al., FEBS Lett. 355:242, 1994) in a modified Tris-HCl buffer (50 mM Tris-HCl, pH 7.4, 10 mM MgCl2, 0.5 mM EDTA) was used. Compounds of the invention were incubated with 1.7 nM [^3H]Lysergic acid diethylamide (LSD) for 60 minutes at 37° C. Non-specific binding was estimated in the presence of 100 μM Serotonin (5-HT). Receptor proteins were filtered and washed, the filters were then counted to determine [^3H]LSD specifically bound. Compounds were screened at 1 μM or lower, using 1% DMSO as vehicle. Compounds of the invention were tested in this biochemical assay and percent inhibition of specific binding was determined. Biochemical assay results are presented as the percent inhibition of specific binding in Table 7.

In assay [4] the target is T4, human recombinant serotonin (5-Hydroxytryptamine) 5-HT2A receptor (Homo sapiens, UniProt P28223).
T4 construct: expressed in transfected cells; host or cells: CHO-K1 cells
T4 sequence (P28223 whole entry): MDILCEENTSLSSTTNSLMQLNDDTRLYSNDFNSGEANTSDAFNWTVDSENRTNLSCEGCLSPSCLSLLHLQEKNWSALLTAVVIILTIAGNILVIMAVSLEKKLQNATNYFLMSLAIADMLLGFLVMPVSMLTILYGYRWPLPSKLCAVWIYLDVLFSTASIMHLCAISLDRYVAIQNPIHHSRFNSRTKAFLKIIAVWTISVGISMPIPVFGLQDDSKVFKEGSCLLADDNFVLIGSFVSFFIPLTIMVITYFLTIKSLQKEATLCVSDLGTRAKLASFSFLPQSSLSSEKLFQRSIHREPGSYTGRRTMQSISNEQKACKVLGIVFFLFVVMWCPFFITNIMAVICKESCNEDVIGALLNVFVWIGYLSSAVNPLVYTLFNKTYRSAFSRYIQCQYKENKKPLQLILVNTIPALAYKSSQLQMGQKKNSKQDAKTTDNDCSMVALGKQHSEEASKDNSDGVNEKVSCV
Description: Serotonin 5-HT2A radioligand binding ([3H]Ketanserin). To be noted: compound at 1 μM; CHO-K1 cells; read-out: Serotonin (1 μM) 5-HT2A, percent inhibition of specific binding. The method, then: To evaluate in radioligand binding assays the activity of compounds of the invention, human recombinant serotonin (5-Hydroxytryptamine) 5-HT2A receptor expressed in Chinese hamster ovary (CHO-K1) cells (Bonhaus, D. W. et al. Br. J. Pharmacol. 115:622, 1995; Saucier, C. and Albert, P. R., J. Neurochem. 68:1998, 1997) in a 50 mM Tris-HCl buffer, pH 7.4, was used. Compounds of the invention were incubated with 0.5 nM [^3H]Ketanserin for 60 minutes at 25° C. Non-specific binding was estimated in the presence of 1 μM Mianserin. Receptor proteins were filtered and washed, the filters were then counted to determine [^3H] Ketanserin specifically bound. Compounds were screened at 1 μM or lower, using 1% DMSO as vehicle. Biochemical assay results are presented as the percent inhibition of specific binding in Table 7.

The test system of assay [5] is rat central imidazoline I2 receptor. Put plainly: Central imidazoline I2 radioligand binding ([3H]Idazoxan). To be noted: compound at 1 μM; Wistar Rat cerebral cortex. Here is the method: To evaluate in radioligand binding assays the activity of compounds of the invention, rat central imidazoline I2 receptor obtained from Wistar Rat cerebral cortex (Brown, C. M. et al., Br. J. Pharmacol. 99:803, 1990) in a modified Tris-HCl buffer (50 mM Tris-HCl buffer, pH 7.4, 0.5 mM EDTA) was used. Compounds of the invention were incubated with 2 nM [^3H]Idazoxan for 30 minutes at 25° C. Non-specific binding was estimated in the presence of 1 μM Idazoxan. Receptor proteins were filtered and washed, the filters were then counted to determine [^3H]Idazoxan specifically bound. Compounds were screened at 1 μM or lower, using 1% DMSO as vehicle. Compounds of the invention were tested in this biochemical assay and percent inhibition of specific binding was determined. Biochemical assay results are presented as the percent inhibition of specific binding in Table 5.

Consider eleven molecules from patent US9115137B2, “2,3,4,5-tetrahydro-1H-pyrido[4,3-B]indole compounds and methods of use thereof” (priority 2008, dated 2015).

A word on the inhibition: it is the change of the read-out against control, counted positive when it falls. Turning to `Cc1ccc2c(c1)c1c(n2CCNC(=O)OCC(Cl)(Cl)Cl)CCN(C)C1` [Compound 8, 2,2,2-trichloroethyl 2-(1,2,3,4-tetrahydro-2,8-dimethylpyrido[4,3-b]indol-5-yl)ethylcarbamate], the inhibition at 1 µM in assay [1] was determined as 80%; in assay [2], 75%; in assay [3], 60%; in assay [4], 99%. The “Imidazoline I2 Central (1 μM), percent inhibition of specific binding” value in assay [5] worked out at 57%.

In the case of `CCNC(=O)CCn1c2c(c3cc(C)ccc31)CN(C)CC2` [Compound 2, N-ethyl-3-(1,2,3,4-tetrahydro-2,8-dimethylpyrido[4,3-b]indol-5-yl)propanamide], the inhibition at 1 µM was found to be 22% in assay [1], 47% in assay [2], 14% in assay [3] and 22% in assay [4]. Also, in assay [5], the “Imidazoline I2 Central (1 μM), percent inhibition of specific binding” value is given as 8%.

Turning to `Cc1ccc2c(c1)c1c(n2CCNC(=O)C2CCCNC2)CCN(C)C1` (stereo not shown) [Compound 9, N-(2-(1,2,3,4-tetrahydro-2,8-dimethylpyrido[4,3-b]indol-5-yl)ethyl)piperidine-3-carboxamide], the inhibition at 1 µM was 21% in assay [1], -8% in assay [2], -6% in assay [3] and 15% in assay [4]. Besides, the “Imidazoline I2 Central (1 μM), percent inhibition of specific binding” value in assay [5] is 9%.

Take `C#CCn1c2c(c3cc(C)ccc31)CN(C)CC2` [CD73, 2,8-dimethyl-5-(prop-2-ynyl)-2,3,4,5-tetrahydro-1H-pyrido[4,3-b]indole]: the inhibition at 1 µM turned out to be 84% in assay [1], 91% in assay [2], 63% in assay [3] and 87% in assay [4]. Moreover, in assay [5], the “Imidazoline I2 Central (1 μM), percent inhibition of specific binding” value is 73%.

In the case of `CCNC(=O)CCCn1c2c(c3cc(C)ccc31)CN(C)CC2` [Compound 6, N-ethyl-4-(1,2,3,4-tetrahydro-2,8-dimethylpyrido[4,3-b]indol-5-yl)butanamide], the inhibition at 1 µM in assay [1] is 31%; in assay [2], 43%; in assay [3], 25%; in assay [4], 30%. Further, in assay [5], the “Imidazoline I2 Central (1 μM), percent inhibition of specific binding” value was found to be 52%.

With `Cc1ccc2c(c1)c1c(n2CCC(=O)NC2CCCCC2)CCN(C)C1` [Compound 3, N-cyclohexyl-3-(1,2,3,4-tetrahydro-2,8-dimethylpyrido[4,3-b]indol-5-yl)propanamide], the inhibition at 1 µM in assay [1] worked out at 14%; in assay [2], 36%; in assay [3] it was 35%; in assay [4], 63%. In addition, in assay [5], the “Imidazoline I2 Central (1 μM), percent inhibition of specific binding” value came out at 27%.

Take `Cc1ccc2c(c1)c1c(n2CCC(=O)NC2CCCC2)CCN(C)C1` [Compound 4, N-cyclopentyl-3-(1,2,3,4-tetrahydro-2,8-dimethylpyrido[4,3-b]indol-5-yl)propanamide]: the inhibition at 1 µM in assay [1] turned out to be 41%; in assay [2], 59%; in assay [3], 47%; in assay [4] it was 53%. Besides, the “Imidazoline I2 Central (1 μM), percent inhibition of specific binding” value in assay [5] was 54%.

Turning to `CCOC(=O)CCCn1c2c(c3cc(C)ccc31)CN(C)CC2` [Compound 5, ethyl 4-(1,2,3,4-tetrahydro-2,8-dimethylpyrido[4,3-b]indol-5-yl)butanoate], the inhibition at 1 µM in assay [1] came out at 77%; in assay [2], 95%; in assay [3], 62%; in assay [4] it was 91%. Moreover, the “Imidazoline I2 Central (1 μM), percent inhibition of specific binding” value in assay [5] stood at 53%.

For `Cc1ccc2c(c1)c1c(n2CC#N)CCN(C)C1` [CD61, 2-(1,2,3,4-tetrahydro-2,8-dimethylpyrido[4,3-b]indol-5-yl)acetonitrile], the inhibition at 1 µM in assay [1] turned out to be 94%; in assay [2], 94%; in assay [3], 52%; in assay [4], 77%. Moreover, the “Imidazoline I2 Central (1 μM), percent inhibition of specific binding” value in assay [5] is listed as 60%.

Consider `CCOC(=O)CCn1c2c(c3cc(C)ccc31)CN(C)CC2` [CD1, ethyl 3-(1,2,3,4-tetrahydro-2,8-dimethylpyrido[4,3-b]indol-5-yl)propanoate], for which the inhibition at 1 µM in assay [1] came to 42%; in assay [2] it was 85%; in assay [3], 39%; in assay [4], 89%. Further, the “Imidazoline I2 Central (1 μM), percent inhibition of specific binding” value in assay [5] is 55%.

Consider `CNC(=O)CCn1c2c(c3cc(C)ccc31)CN(C)CC2` [Compound 1, 3-(1,2,3,4-tetrahydro-2,8-dimethylpyrido[4,3-b]indol-5-yl)-N-methylpropanamide], for which the inhibition at 1 µM is 13% in assay [1], 33% in assay [2], 4% in assay [3] and 30% in assay [4]. Further, the “Imidazoline I2 Central (1 μM), percent inhibition of specific binding” value in assay [5] is 18%.
